Like-named read-outs stand apart in the source and are kept apart here.

For experiment [1], the target named is T1, hP2X2/3H (Homo sapiens, UniProt P56373+Q9UBL9).
T1 construct: expressed in transfected cells; host or cells: e.g. HEK293 or 1321N1
T1 sequence (Q9UBL9 1-471): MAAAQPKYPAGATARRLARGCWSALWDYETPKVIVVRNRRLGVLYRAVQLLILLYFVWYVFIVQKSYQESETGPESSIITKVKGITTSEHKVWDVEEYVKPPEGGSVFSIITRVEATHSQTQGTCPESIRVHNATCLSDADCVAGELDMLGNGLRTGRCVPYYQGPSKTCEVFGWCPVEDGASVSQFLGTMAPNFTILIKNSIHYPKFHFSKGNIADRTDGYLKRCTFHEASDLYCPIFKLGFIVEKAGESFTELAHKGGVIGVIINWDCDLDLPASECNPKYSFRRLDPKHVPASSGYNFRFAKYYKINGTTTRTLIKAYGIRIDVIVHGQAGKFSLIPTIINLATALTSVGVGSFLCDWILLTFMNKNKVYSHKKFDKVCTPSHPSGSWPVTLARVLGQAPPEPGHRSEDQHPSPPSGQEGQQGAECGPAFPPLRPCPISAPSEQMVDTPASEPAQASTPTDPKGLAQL
T1 sequence (P56373 1-397): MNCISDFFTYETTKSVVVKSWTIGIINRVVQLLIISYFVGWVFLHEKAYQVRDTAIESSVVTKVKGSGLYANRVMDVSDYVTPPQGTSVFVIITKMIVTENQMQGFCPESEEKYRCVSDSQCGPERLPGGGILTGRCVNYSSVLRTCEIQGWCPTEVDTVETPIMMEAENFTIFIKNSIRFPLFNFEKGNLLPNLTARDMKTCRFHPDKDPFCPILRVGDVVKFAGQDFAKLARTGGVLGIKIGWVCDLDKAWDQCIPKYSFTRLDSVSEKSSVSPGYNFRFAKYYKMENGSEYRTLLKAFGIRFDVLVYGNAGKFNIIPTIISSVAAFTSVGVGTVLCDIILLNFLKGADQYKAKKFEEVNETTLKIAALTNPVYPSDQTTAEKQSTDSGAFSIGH
Nature of the experiment: Calcium uptake assay (P2X antagonist assay), P2X2/3 heteromer. In kind it is cell-based. Particulars: hP2X2/3H. The procedure, abridged:
(§1)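 Stably or transiently transfected HEK293 or 1321N1 cells; the heteromer is made by adding P2X3 to a P2X2-stable line, with heteromer function isolated pharmacologically. The peak-minus-baseline FLIPR calcium signal gives % inhibition and a 4-parameter-logistic IC50.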

Experiment [2] has as its target T2, hP2X3 (Homo sapiens, UniProt P56373).
T2 construct: expressed in transfected cells; host or cells: e.g. HEK293 or 1321N1
T2 sequence (P56373 1-397): T1 sequence (P56373 1-397)
Nature of the experiment: Calcium uptake assay (P2X antagonist assay), P2X3 homomer. Particulars: hP2X3. In kind it is cell-based. The procedure, abridged: as §1

[3] abbreviates: calcium uptake assay, read-out: IC50 hP2X2/3H (nM), Ca Influx.
The mark [4] stands for this setting: calcium uptake assay, read-out: IC50 hP2X3 (nM), Ca Influx.
[5] abbreviates: Ca influx (calcium uptake assay), read-out: IC50 hP2X2/3H.
[6] abbreviates: Ca influx (calcium uptake assay), read-out: IC50 hP2X3.

Turning to `Cc1ncc(CNC(=O)c2cc(C(=O)N3CCCC3)cc(-c3ccc(F)cc3F)c2)cn1` [Compound 53], the IC50 is > 1000 nM in experiment [1] (setting [3]) and 100 to 500 nM in experiment [2] (setting [4]).

Turning to `COc1ccc([C@@H](CO)NC(=O)c2cc(C(=O)N(C)CC(C)C)cc(-c3ccc(C)cc3)c2)cn1` [Compound 7, (S)—N3-(2-hydroxy-1-(6-methoxypyridin-3-yl)ethyl)-N5-isobutyl-N5,4′-dimethyl-biphenyl-3,5-dicarboxamide], the IC50 in experiment [1] (setting [3]) and in experiment [2] (setting [4]) was 100 to 500 nM throughout.

Consider `COCC(OC)c1cc(C(=O)N[C@H](C)c2ccc(C)nc2)cc(-c2ccc(C)cc2)c1` (stereo partly drawn) [Compound 380], for which the IC50 in experiment [1] (setting [5]) and in experiment [2] (setting [6]) was < 100 nM each time.

For the molecule `Cc1ccc(-c2cc(C(=O)N[C@H](C)c3ccc(C)nc3)cc(C(O)c3nccs3)c2)cc1` (stereo partly drawn) [Compound 280, 5-(Hydroxy(thiazol-2-yl)methyl)-4′-methyl-N—((R)-1-(6-methylpyridin-3-yl)ethyl)biphenyl-3-carboxamide], the IC50 in experiment [1] (setting [5]) and in experiment [2] (setting [6]) was < 100 nM in each case.

Regarding `Cc1ccc(-c2cc(C(N)=O)cc(C(=O)NCc3ccc(C)nc3)c2)cc1` [Compound 161], the IC50 in experiment [1] (setting [3]) is 100 to 500 nM; in experiment [2] (setting [4]), < 100 nM.

Take `Cc1ccc(-c2cc(Oc3ncccn3)cc(C(=O)NCc3cnc(C)nc3)c2)cc1` [Compound 234]: the results for the IC50 in experiment [1] (setting [5]) and in experiment [2] (setting [6]) were 501 to 1000 nM and 100 to 500 nM, respectively.

For the molecule `Cc1ccc(-c2cc(C(=O)NCc3cnc(C)nc3)cc(S(C)(=O)=O)c2)cc1` [Compound 22, 4′-Methyl-N-((2-methylpyrimidin-5-yl)methyl)-5-(methylsulfonyl)biphenyl-3-carboxamide], the IC50 in experiment [1] (setting [3]) is 100 to 500 nM; in experiment [2] (setting [4]), < 100 nM.

Regarding `Cc1ncc([C@@H](C)NC(=O)c2cc(-c3ccccc3)cc(S(C)(=O)=O)c2)cn1` [Compound 370], the IC50 was 501 to 1000 nM in experiment [1] (setting [5]) and < 100 nM in experiment [2] (setting [6]).

For `Cc1ccc(-c2cc(C(=O)NCc3ncc(C(F)(F)F)cc3Cl)cc(S(C)(=O)=O)c2)nc1` [Compound 350], the IC50 in experiment [1] (setting [5]) was 100 to 500 nM; in experiment [2] (setting [6]), < 100 nM.

As to `Cc1ccc(-c2cc(OCC3CCOC3)cc(C(=O)N[C@H](C)c3ccc(C)nc3)c2)cc1` (stereo partly drawn) [Compound 309], the IC50 in experiment [1] (setting [5]) is < 100 nM; in experiment [2] (setting [6]) it was 100 to 500 nM.

Consider `Cc1ccc(-c2cc(C(=O)N[C@H](C)c3ccc(C)nc3)cc(C(C)O)c2)cc1` (stereo partly drawn) [Compound 321], for which the IC50 in experiment [1] (setting [5]) and in experiment [2] (setting [6]) was < 100 nM in each case.

Regarding `Cc1ccc(-c2cc(C(=O)NCc3ccc(C)nc3)cc(S(C)(=O)=O)c2)nc1` [Compound 113, 3-(5-Methylpyridin-2-yl)-N-((6-methylpyridin-3-yl)methyl)-5-(methylsulfonyl)benzamide], the IC50 in experiment [1] (setting [3]) was 100 to 500 nM; in experiment [2] (setting [4]), < 100 nM.

For the molecule `Cc1ccc(-c2cc(C(=O)NCc3ccc4cccnc4c3)cc(C(=O)N3CCCC3)c2)cc1` [Compound 49, 4′-Methyl-5-(pyrrolidine-1-carbonyl)-N-(quinolin-7-ylmethyl)biphenyl-3-carboxamide], the IC50 in experiment [1] (setting [3]) and in experiment [2] (setting [4]) was 100 to 500 nM in each case.

In the case of `Cc1ccc(-c2cc(C(=O)N[C@H](C)c3cnc(C)nc3)cc(C(O)C(C)C)c2)cc1` (stereo partly drawn) [Compound 397], the IC50 in experiment [1] (setting [5]) and in experiment [2] (setting [6]) was < 100 nM each time.

As to `Cc1ccc(-c2cc(Oc3ccccn3)cc(C(=O)N[C@H](C)c3cnc(C)nc3)c2)nc1` [Compound 270], the IC50 in experiment [1] (setting [5]) and in experiment [2] (setting [6]) was < 100 nM each time.

With `COc1ncc(CNC(=O)c2cc(C(=O)N3CC(O)C3)cc(-c3ccc(C)cc3)c2)cn1` [Compound 133], the IC50 was 100 to 500 nM in experiment [1] (setting [3]) and < 100 nM in experiment [2] (setting [4]).

On to `Cc1ccc(-c2cc(C(=O)N[C@H](C)c3ccc(C(F)(F)F)nc3)cc(C(=O)N3CCC3)c2)cc1` [Compound 75], for which the IC50 in experiment [1] (setting [3]) and in experiment [2] (setting [4]) was < 100 nM throughout.

As for `Cc1ccc(-c2cc(Oc3ncccn3)cc(C(=O)N[C@H](C)c3cnc(C)nc3)c2)nc1` [Compound 273], the IC50 is 501 to 1000 nM in experiment [1] (setting [5]) and 100 to 500 nM in experiment [2] (setting [6]).

The record behind these values is US8946439B2, “Amide compounds, compositions and uses thereof” (Evotec AG, priority 2008, dated 2015).
